Measured values reported in patent US6727264B1 (Synaptic Pharmaceutical Corporation, priority 2001, dated 2004).

Biological target: rat MCH-1 (Rattus norvegicus, UniProt P97639)
Experiment: Radioligand binding assay at cloned rat MCH1 receptor ([3H] Compound A)
Set-up: host or cells: Peak rapid 293 (Peakr293) cells, transient calcium phosphate transfection, membranes
Conditions: cloned rat MCH1 receptor; 0.08 nM [3H] Compound A; Peakr293 cell membranes; read-out: Ki (nM) rMCH1

rat MCH-1, sequence (P97639 whole entry): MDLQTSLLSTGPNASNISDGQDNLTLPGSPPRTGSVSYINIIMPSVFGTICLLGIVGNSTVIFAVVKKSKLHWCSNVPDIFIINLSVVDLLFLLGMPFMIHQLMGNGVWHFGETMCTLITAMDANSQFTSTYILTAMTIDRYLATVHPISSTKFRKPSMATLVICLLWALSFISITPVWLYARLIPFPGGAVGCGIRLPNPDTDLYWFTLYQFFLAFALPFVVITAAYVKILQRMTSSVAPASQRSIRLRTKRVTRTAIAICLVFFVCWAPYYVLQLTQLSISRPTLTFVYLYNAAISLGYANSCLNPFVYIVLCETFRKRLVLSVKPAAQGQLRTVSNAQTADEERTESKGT

Ki	SMILES
8 nM	Cc1cccc2c(CCCN3CCC(c4cccc(NC(=O)C(C)C)c4)CC3)c(-c3ccc(I)cc3)[nH]c12 [Example 746]
3.1 nM	CC(C)C(=O)Nc1cccc(C2CCN(CCCc3c(-c4ccc(I)cc4)n(C)c4ccccc34)CC2)c1 [Example 748]
23.2 nM	CC(C)C(=O)Nc1cccc(C2CCN(CCCc3c(-c4ccc(I)cc4)[nH]c4c3ccc3ccccc34)CC2)c1 [Example 749]
2.6 nM	CC(C)C(=O)Nc1cccc(C2CCN(CCCc3c(-c4ccc(I)cc4)[nH]c4ccccc34)CC2)c1 [Example 750]
12.4 nM	CC(C)C(=O)Nc1cccc(C2CCN(CCCc3c(-c4cccc(Br)c4)[nH]c4ccc(OC(F)(F)F)cc34)CC2)c1 [Example 751]
21.7 nM	CC(C)C(=O)Nc1cccc(C2CCN(CCCc3c(-c4ccc(Br)cc4)[nH]c4c3ccc3ccccc34)CC2)c1 [Example 752]
16.6 nM	Cc1cccc2c(CCCN3CCC(c4cccc(NC(=O)C(C)C)c4)CC3)c(-c3ccc(Br)cc3)[nH]c12 [Example 753]
49.2 nM	CC(C)C(=O)Nc1cccc(C2CCN(CCCc3c(-c4ccc(Br)cc4)[nH]c4ccc(OC(F)(F)F)cc34)CC2)c1 [Example 754]
23.8 nM	CC(C)C(=O)Nc1cccc(C2CCN(CCCc3c(-c4cccc(Br)c4)[nH]c4c3ccc3ccccc34)CC2)c1 [Example 755]
4.2 nM	CC(C)C(=O)Nc1cccc(C2CCN(CCCc3c(-c4ccc(Br)cc4)[nH]c4ccccc34)CC2)c1 [Example 756]
110 nM	CC(C)C(=O)Nc1cccc(C2CCN(CCCc3c(-c4cccc(Br)c4)n(C)c4ccccc34)CC2)c1 [Example 758]
92.3 nM	CC(C)C(=O)Nc1cccc(C2CCN(CCCc3c(-c4ccc(Br)cc4)n(-c4ccccc4)c4ccccc34)CC2)c1 [Example 760]
15.9 nM	COc1ccc2[nH]c(-c3ccc(Br)cc3)c(CCCN3CCC(c4cccc(NC(=O)C(C)C)c4)CC3)c2c1 [Example 761]
6.3 nM	Cc1cccc2c(CCCN3CCC(c4cccc(NC(=O)C(C)C)c4)CC3)c(-c3cccc(Br)c3)[nH]c12 [Example 762]
1.9 nM	Cc1ccc2[nH]c(-c3cccc(Br)c3)c(CCCN3CCC(c4cccc(NC(=O)C(C)C)c4)CC3)c2c1 [Example 763]
14.6 nM	Cc1ccc2[nH]c(-c3ccc(Br)cc3)c(CCCN3CCC(c4cccc(NC(=O)C(C)C)c4)CC3)c2c1 [Example 764]
6.5 nM	COc1ccc2[nH]c(-c3cccc(Br)c3)c(CCCN3CCC(c4cccc(NC(=O)C(C)C)c4)CC3)c2c1 [Example 765]
7.6 nM	CC(C)C(=O)Nc1cccc(C2CCN(CCCc3c(-c4cccc([N+](=O)[O-])c4)[nH]c4ccccc34)CC2)c1 [Example 766]
34.8 nM	CC(C)C(=O)Nc1cccc(C2CCN(CCCc3c(-c4cccc([N+](=O)[O-])c4)[nH]c4c3ccc3ccccc34)CC2)c1 [Example 767]

Ki	SMILES
17.5 nM	CC(C)C(=O)Nc1cccc(C2CCN(CCCc3c(-c4cccc([N+](=O)[O-])c4)[nH]c4ccc(OC(F)(F)F)cc34)CC2)c1 [Example 768]
12.4 nM	Cc1ccc2[nH]c(-c3cccc([N+](=O)[O-])c3)c(CCCN3CCC(c4cccc(NC(=O)C(C)C)c4)CC3)c2c1 [Example 769]
12.7 nM	COc1ccc2[nH]c(-c3cccc([N+](=O)[O-])c3)c(CCCN3CCC(c4cccc(NC(=O)C(C)C)c4)CC3)c2c1 [Example 770]
23.8 nM	Cc1cccc2c(CCCN3CCC(c4cccc(NC(=O)C(C)C)c4)CC3)c(-c3cccc([N+](=O)[O-])c3)[nH]c12 [Example 773]
7.9 nM	COc1ccc2[nH]c(-c3ccc([N+](=O)[O-])cc3)c(CCCN3CCC(c4cccc(NC(=O)C(C)C)c4)CC3)c2c1 [Example 774]
4.9 nM	CC(C)C(=O)Nc1cccc(C2CCN(CCCc3c(-c4ccccc4Br)[nH]c4ccccc34)CC2)c1 [Example 775]
18.2 nM	Cc1ccc2[nH]c(-c3ccc([N+](=O)[O-])cc3)c(CCCN3CCC(c4cccc(NC(=O)C(C)C)c4)CC3)c2c1 [Example 776]
8.5 nM	CC(C)C(=O)Nc1cccc(C2CCN(CCCc3c(-c4ccc([N+](=O)[O-])cc4)[nH]c4c3ccc3ccccc34)CC2)c1 [Example 777]
7.6 nM	Cc1cccc2c(CCCN3CCC(c4cccc(NC(=O)C(C)C)c4)CC3)c(-c3ccc([N+](=O)[O-])cc3)[nH]c12 [Example 779]
7.6 nM	CC(C)C(=O)Nc1cccc(C2CCN(CCCc3c(-c4ccccc4Br)[nH]c4c3ccc3ccccc34)CC2)c1 [Example 781]
18.1 nM	CC(C)C(=O)Nc1cccc(C2CCN(CCCc3c(-c4ccccc4Br)[nH]c4ccc(OC(F)(F)F)cc34)CC2)c1 [Example 782]
18 nM	Cc1cccc2c(CCCN3CCC(c4cccc(NC(=O)C(C)C)c4)CC3)c(-c3ccccc3Br)[nH]c12 [Example 783]
22.7 nM	Cc1ccc2[nH]c(-c3ccccc3Br)c(CCCN3CCC(c4cccc(NC(=O)C(C)C)c4)CC3)c2c1 [Example 785]
19.7 nM	CC(C)C(=O)Nc1cccc(C2CCN(CCCc3c(-c4ccccc4I)[nH]c4ccc(OC(F)(F)F)cc34)CC2)c1 [Example 786]
21.6 nM	Cc1ccc2[nH]c(-c3ccccc3I)c(CCCN3CCC(c4cccc(NC(=O)C(C)C)c4)CC3)c2c1 [Example 787]
4.4 nM	CC(C)C(=O)Nc1cccc(C2CCN(CCCc3c(-c4ccccc4I)[nH]c4ccccc34)CC2)c1 [Example 790]
12.7 nM	CC(C)C(=O)Nc1cccc(C2CCN(CCCc3c(-c4ccccc4I)[nH]c4c3ccc3ccccc34)CC2)c1 [Example 791]
16.3 nM	Cc1cccc2c(CCCN3CCC(c4cccc(NC(=O)C(C)C)c4)CC3)c(-c3ccccc3I)[nH]c12 [Example 793]

Continued, compound first:

SMILES	Ki
CC(C)C(=O)Nc1cccc(C2CCN(CCCc3c(-c4ccc(I)cc4)n(-c4ccccc4)c4ccccc34)CC2)c1 [Example 747]	161 nM
CC(C)C(=O)Nc1cccc(C2CCN(CCCc3c(-c4cccc(Br)c4)n(-c4ccccc4)c4ccccc34)CC2)c1 [Example 757]	6.9 nM
CC(C)C(=O)Nc1cccc(C2CCN(CCCc3c(-c4ccc(Br)cc4)n(C)c4ccccc34)CC2)c1 [Example 759]	9.3 nM
CC(C)C(=O)Nc1cccc(C2CCN(CCCc3c(-c4cccc([N+](=O)[O-])c4)n(-c4ccccc4)c4ccccc34)CC2)c1 [Example 771]	189 nM
CC(C)C(=O)Nc1cccc(C2CCN(CCCc3c(-c4cccc([N+](=O)[O-])c4)n(C)c4ccccc34)CC2)c1 [Example 772]	14.9 nM
CC(C)C(=O)Nc1cccc(C2CCN(CCCC/C(=N\Nc3ccccc3)c3ccc([N+](=O)[O-])cc3)CC2)c1 [Example 778]	26.5 nM
CC(C)C(=O)Nc1cccc(C2CCN(CCCC/C(=N\Nc3ccc(OC(F)(F)F)cc3)c3ccc([N+](=O)[O-])cc3)CC2)c1 [Example 780]	64.3 nM
CC(C)C(=O)Nc1cccc(C2CCN(CCCc3c(-c4ccccc4Br)n(-c4ccccc4)c4ccccc34)CC2)c1 [Example 784]	121 nM
CC(C)C(=O)Nc1cccc(C2CCN(CCCc3c(-c4ccc([N+](=O)[O-])cc4)n(C)c4ccccc34)CC2)c1 [Example 788]	11.1 nM
CC(C)C(=O)Nc1cccc(C2CCN(CCCc3c(-c4ccc([N+](=O)[O-])cc4)n(-c4ccccc4)c4ccccc34)CC2)c1 [Example 789]	36.4 nM
CC(C)C(=O)Nc1cccc(C2CCN(CCCc3c(-c4ccccc4I)n(-c4ccccc4)c4ccccc34)CC2)c1 [Example 792]	122 nM
CC(C)C(=O)Nc1cccc(C2CCN(CCCc3c(-c4ccccc4Br)n(C)c4ccccc34)CC2)c1 [Example 794]	4.9 nM
CC1=C(C(=O)NCCCN2CCC(c3cccc(NC(=O)C(C)C)c3)CC2)C(c2ccc(F)c(F)c2)CC(=O)N1 (stereo not drawn) [Example 795]	51.1 nM
CC1=C(C(=O)NCCCN2CCC(c3cccc(NC(=O)C(C)C)c3)CC2)C(c2ccc(F)cc2F)CC(=O)N1 (stereo not drawn) [Example 796]	43 nM
COc1ccc(CCCCN2CCC(c3cccc(NC(=O)C(C)C)c3)CC2)cc1 [Example 797]	42.4 nM
CCC(=O)Nc1ccc(C2CCN(CCCc3c(-c4ccccc4)n(-c4ccccc4)c4ccccc34)CC2)cc1 [Example 798]	475 nM

SMILES	Ki
CCC(=O)Nc1ccc(C2CCN(CCC(c3ccccc3)c3ccccc3)CC2)cc1 [Example 799]	371 nM
CC(C)C(=O)Nc1cccc(C2CCN(CCCCc3ccc([N+](=O)[O-])cc3)CC2)c1 [Example 800]	9.9 nM
CC(C)C(=O)Nc1cccc(C2CCN(CCc3cccc4ccccc34)CC2)c1 [Example 801]	311 nM
CC(C)C(=O)Nc1cccc(C2CCN(CCC(c3ccccc3)c3ccccc3)CC2)c1 [Example 802]	36.7 nM
COc1ccc(CCCN2CCC(c3cccc(NC(=O)C(C)C)c3)CC2)cc1OC [Example 803]	299 nM
CC(C)C(=O)Nc1cccc(C2CCN(CCCc3ccccc3)CC2)c1 [Example 804]	89.2 nM
CC(C)C(=O)Nc1cccc(C2CCN(CCCc3ccncc3)CC2)c1 [Example 805]	904 nM
CC(C)C(=O)Nc1cccc(C2CCN(Cc3ccc(C(C)(C)C)cc3)CC2)c1 [Example 806]	14.1 nM
CC(C)C(=O)Nc1cccc(C2CCN(Cc3ccc(C(=O)c4ccccc4)cc3)CC2)c1 [Example 807]	2.7 nM
CC(C)C(=O)Nc1cccc(C2CCN(CC[C@H](Oc3ccc(Cl)c(Cl)c3)c3ccccc3)CC2)c1 [Example 808]	10.8 nM
CC(C)C(=O)Nc1cccc(C2CCN(CCCCCC(O)c3ccccc3F)CC2)c1 (stereo not drawn) [Example 809]	56.8 nM
CC(C)C(=O)Nc1cccc(C2CCN(CCCCC(O)c3ccc(C(F)(F)F)cc3)CC2)c1 (stereo not drawn) [Example 810]	191 nM
CC(C)C(=O)Nc1cccc(C2CCN(CCCCC(O)c3ccc(F)cc3)CC2)c1 (stereo not drawn) [Example 811]	191 nM
CC(C)C(=O)Nc1cccc(C2CCN(CCCCCCC(O)c3ccccc3F)CC2)c1 (stereo not drawn) [Example 812]	245 nM
CC(C)C(=O)Nc1cccc(C2CCN(CCCCCC(O)c3cccc(F)c3)CC2)c1 (stereo not drawn) [Example 813]	57.3 nM
CC(C)C(=O)Nc1cccc(C2CCN(CCCCC(O)c3ccccc3F)CC2)c1 (stereo not drawn) [Example 814]	159 nM
